{"source": "paper PMC11480361", "about": "“Design of a Cereblon construct for crystallographic and biophysical studies of protein degraders” (Nature Communications, 2024)", "key": {"CRBN^midi and BRD4^BD2 [1]": {"target": "T1, CRBN^midi and BRD4^BD2 (Homo sapiens, UniProt O60885+Q96SW2, C287N/C343E/C78I/DEL188-248/G302D/I92V/INS187GSG/K116N/L342R/L423I/Q134E/R283W/T359I/V293S)", "T1 construct": "amino acids 41-187 followed by a Gly-Ser-Gly linker and amino acids 249-426; Human Brd4^BD2 (residues 333–460, UniProt ID: O60885); His6 (N); made in house; host or cells: E. coli BL21(DE3)", "T1 sequence (Q96SW2 with tags, fused parts or gaps with the stated changes limits assumed, other chains not shown)": "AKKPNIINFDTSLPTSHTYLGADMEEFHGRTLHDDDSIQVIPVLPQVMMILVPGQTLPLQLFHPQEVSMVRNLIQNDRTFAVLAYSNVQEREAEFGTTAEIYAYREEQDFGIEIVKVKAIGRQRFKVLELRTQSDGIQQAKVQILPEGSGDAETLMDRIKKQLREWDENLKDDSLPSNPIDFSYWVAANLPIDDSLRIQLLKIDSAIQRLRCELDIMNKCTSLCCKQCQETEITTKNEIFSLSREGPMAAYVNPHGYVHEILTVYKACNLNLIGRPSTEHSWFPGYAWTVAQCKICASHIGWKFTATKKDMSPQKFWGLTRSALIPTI", "assay": "TR-FRET ternary complex formation with BRD4^BD2", "format": "binding", "details": "for TR-FRET signal: CRBNmidi, source data Fig. 3h, replicates", "protocol": "(§1) The mixture was incubated in the dark with gentle rocking for 1 hour before readout using a PHERAstar microplate reader (BMG Labtech) with Pherastar software (version 5.70 R5). All incubations were conducted at 20 °C. Data were fitted by non-linear regression (curve fit) using Prism software (GraphPad version 10). Experiments were conducted in triplicate and were the average of three repeats."}, "CRBN^TBD and BRD4^BD2": {"tested_on": "T2, CRBN^TBD and BRD4^BD2", "T2 construct": "Human Brd4^BD2 (residues 333–460, UniProt ID: O60885); GST (cleaved yes); His6; His6 (N); made in house; host or cells: E. coli BL21(DE3)", "assay": "TR-FRET ternary complex formation with BRD4^BD2", "format": "binding, human", "details": "for TR-FRET signal: CRBNTBD, source data Fig. 3h, replicates", "protocol": "as §1"}, "[2]": {"tested_on": "T3, CRBN^ΔN:DDB1^ΔBPB and BRD4^BD2", "T3 construct": "a construct lacking the unstructured N-terminal region of CRBN (CRBN^ΔN:DDB1); Human Brd4^BD2 (residues 333–460, UniProt ID: O60885); His6 (N); purchased Selvita", "assay": "TR-FRET ternary complex formation with BRD4^BD2", "format": "binding, human", "details": "for TR-FRET signal: CRBNΔN-DDB1ΔBPB, source data Fig. 3h, replicates", "protocol": "as §1"}, "CRBN^midi": {"target": "T4, CRBN^midi (Homo sapiens, UniProt Q96SW2, C287N/C343E/C78I/DEL188-248/G302D/I92V/INS187GSG/K116N/L342R/L423I/Q134E/R283W/T359I/V293S)", "T4 construct": "amino acids 41-187 followed by a Gly-Ser-Gly linker and amino acids 249-426; His6 (N, cleaved yes); made in house; host or cells: E. coli BL21(DE3)", "T4 sequence (Q96SW2 with tags, fused parts or gaps with the stated changes limits assumed)": "as the sequence (Q96SW2 with tags, fused parts or gaps with the stated changes limits assumed, other chains not shown) above", "assay": "SPR, CRBN^midi on chip, binary", "format": "binding", "protocol": "All SPR measurements were carried out on a Biacore^TM 8 K (Cytiva, Biacore Insight Control Software version 5.0.18.22405). CRBN^midi was immobilized via a His6 tag on a NiHC 1500 M chip (XanTec) at 25 °C. The chip surface was prepared for ligand (CRBN^midi) capture as per manufacturer’s instructions, flowing 350 mM EDTA, followed by buffer, then loaded using 5 mM NiCl2 followed by buffer. For binary measurements CRBN^midi was diluted to 350 nM and flowed at 10 µL/min. for 420 s to capture a final bound response of 240 RUs. For […] measurements, 10 nM of CRBN^midi was flowed at 10 µl/min. for 420 s to capture a final bound response of approximately 10,000 RUs. The buffer for immobilization and all kinetic measurements was 50 mM Tris pH 8.0, 150 mM NaCl, 0.25 mM TCEP, 0.005% (v/v) Tween-20 and 2% (v/v) DMSO.\n(§2) For ternary experiments the analyte was supplemented with 50 µM BRD4^BD2. Each concentration point was flowed independently at 50 µL/min. with an association time of 150 s followed by 500 s dissociation. All measurements were carried out at 20 °C.\n(§3) Data was analyzed using Biacore^TM Insight Evaluation Software (version 4.0.8.20368). Raw sensograms were solvent corrected, followed by reference and blank subtraction. […] Alpha, a parameter indicative of cooperativity, was calculated by dividing binary KD by ternary KD."}, "CRBN^midi and BRD4^BD2 [3]": {"target": "T1, CRBN^midi and BRD4^BD2", "assay": "SPR, CRBN^midi on chip, ternary (analyte with 50 µM BRD4^BD2)", "format": "binding", "protocol": "All SPR measurements were carried out on a Biacore^TM 8 K (Cytiva, Biacore Insight Control Software version 5.0.18.22405). […] The buffer for immobilization and all kinetic measurements was 50 mM Tris pH 8.0, 150 mM NaCl, 0.25 mM TCEP, 0.005% (v/v) Tween-20 and 2% (v/v) DMSO.\nas §2, §3"}, "[4]": {"details": "CRBN^midi immobilization level 9581"}, "[5]": {"details": "CRBN^midi immobilization level 240"}}, "note": "Values joined by “and” are separate entries in the source; they are usually repeats but may differ in a detail not shown here. Equal entries are not always repeated."}
{"smiles": "Cc1nnc2n1-c1ccc(-c3cnn(CCCCCCCN4CCC(c5cccc6c5CN(C5CCC(=O)NC5=O)C6=O)CC4)c3)cc1C(c1ccc(Cl)cc1)=NC21CC1", "note": "(centres unmarked) [CFT-1297]", "values": [{"measurement": "maximal concentration of bell-shaped TR-FRET profile", "setting": "CRBN^midi and BRD4^BD2 [1]; CRBN^midi, BRD4^BD2", "value": 21, "unit": "nM"}, {"measurement": "TR-FRET signal", "setting": "CRBN^midi and BRD4^BD2 [1]; CFT-1297 6.3657e-10 M", "value": "120 and 116 and 105 and 148 and 130 and 152 and 174 and 158 and 167"}, {"measurement": "TR-FRET signal", "setting": "CRBN^midi and BRD4^BD2 [1]; CFT-1297 2.01156e-9 M", "value": "347 and 363 (2×) and 394 and 412 and 387 and 420 (2×) and 430"}, {"measurement": "TR-FRET signal", "setting": "CRBN^midi and BRD4^BD2 [1]; CFT-1297 6.35653e-9 M", "value": "931 and 924 and 913 and 954 and 948 and 945 and 981 and 982 and 990"}, {"measurement": "TR-FRET signal", "setting": "CRBN^midi and BRD4^BD2 [1]; CFT-1297 2.00866e-8 M", "value": "1502 and 1521 and 1538 and 1551 and 1571 and 1561 and 1573 and 1559 and 1582"}, {"measurement": "TR-FRET signal", "setting": "CRBN^midi and BRD4^BD2 [1]; CFT-1297 6.34738e-8 M", "value": "850 and 872 and 886 and 873 and 864 and 854 and 799 and 811 and 813"}, {"measurement": "TR-FRET signal", "setting": "CRBN^midi and BRD4^BD2 [1]; CFT-1297 2.00577e-7 M", "value": "376 and 352 and 403 and 396 and 394 (2×) and 313 and 326 and 341"}, {"measurement": "TR-FRET signal", "setting": "CRBN^midi and BRD4^BD2 [1]; CFT-1297 6.33824e-7 M", "value": "185 and 204 and 173 and 213 and 220 and 205 and 126 and 137 and 130"}, {"measurement": "TR-FRET signal", "setting": "CRBN^midi and BRD4^BD2 [1]; CFT-1297 2.00288e-6 M", "value": "130 and 122 and 145 and 152 and 153 and 147 and 79 and 88 and 84"}, {"measurement": "TR-FRET signal", "setting": "CRBN^midi and BRD4^BD2 [1]; CFT-1297 6.32911e-6 M", "value": "113 and 129 and 102 and 140 and 135 and 145 and 75 and 68 and 78"}, {"measurement": "TR-FRET signal", "setting": "CRBN^TBD and BRD4^BD2; CFT-1297 6.3657e-10 M", "value": "-100 and -96 and -91 and -28 and -32 and -31 and -4 and -7 and 0"}, {"measurement": "TR-FRET signal", "setting": "CRBN^TBD and BRD4^BD2; CFT-1297 2.01156e-9 M", "value": "20 and 18 and 19 and 27 (2×) and 31 and 16 and 0 and 9"}, {"measurement": "TR-FRET signal", "setting": "CRBN^TBD and BRD4^BD2; CFT-1297 6.35653e-9 M", "value": "17 and 14 and 10 and 42 and 47 and 37 and 20 and 23 and 11"}, {"measurement": "TR-FRET signal", "setting": "CRBN^TBD and BRD4^BD2; CFT-1297 2.00866e-8 M", "value": "45 and 44 and 40 and 53 and 52 (2×) and 41 and 50"}, {"measurement": "TR-FRET signal", "setting": "CRBN^TBD and BRD4^BD2; CFT-1297 6.34738e-8 M", "value": "117 and 115 and 122 and 101 and 103 and 107 and 98 and 97 and 102"}, {"measurement": "TR-FRET signal", "setting": "CRBN^TBD and BRD4^BD2; CFT-1297 2.00577e-7 M", "value": "132 and 129 and 128 and 106 and 105 and 108 and 111 and 110"}, {"measurement": "TR-FRET signal", "setting": "CRBN^TBD and BRD4^BD2; CFT-1297 6.33824e-7 M", "value": "109 and 104 and 106 and 98 and 78 and 100"}, {"measurement": "TR-FRET signal", "setting": "CRBN^TBD and BRD4^BD2; CFT-1297 2.00288e-6 M", "value": "112 and 117 and 108 and 92 and 89 and 102 and 91 and 95 and 90"}, {"measurement": "TR-FRET signal", "setting": "CRBN^TBD and BRD4^BD2; CFT-1297 6.32911e-6 M", "value": "131 (2×) and 129 and 112 and 107 and 117 and 110 and 105"}, {"measurement": "ternary complex formation by TR-FRET", "setting": "CRBN^TBD and BRD4^BD2; CRBN^TBD, BRD4^BD2", "value": "no significant ternary complex formation was detected"}, {"measurement": "maximal concentration of bell-shaped TR-FRET profile", "setting": "[2]; CRBN^ΔN:DDB1^ΔBPB, BRD4^BD2", "value": 17, "unit": "nM"}, {"measurement": "TR-FRET signal", "setting": "[2]; CFT-1297 6.3657e-10 M", "value": "5 and -3 and 2 and 6 and 3 and 13 and 20"}, {"measurement": "TR-FRET signal", "setting": "[2]; CFT-1297 2.01156e-9 M", "value": "73 and 94 and 64 and 70 and 78 and 68 and 83 and 85 and 77"}, {"measurement": "TR-FRET signal", "setting": "[2]; CFT-1297 6.35653e-9 M", "value": "339 and 359 and 325 and 342 and 338 and 345 and 352 and 373 and 376"}, {"measurement": "TR-FRET signal", "setting": "[2]; CFT-1297 2.00866e-8 M", "value": "756 and 794 and 735 and 761 and 799 and 801 and 763 and 726 and 762"}, {"measurement": "TR-FRET signal", "setting": "[2]; CFT-1297 6.34738e-8 M", "value": "382 (2×) and 392 and 395 and 387 and 370 and 383 and 372 and 363"}, {"measurement": "TR-FRET signal", "setting": "[2]; CFT-1297 2.00577e-7 M", "value": "131 and 143 and 127 and 140 and 124 and 132 and 129 and 147 and 119"}, {"measurement": "TR-FRET signal", "setting": "[2]; CFT-1297 6.33824e-7 M", "value": "50 and 51 and 69 and 66 and 56 and 71 and 52 and 54 and 38"}, {"measurement": "TR-FRET signal", "setting": "[2]; CFT-1297 2.00288e-6 M", "value": "14 and 4 and 16 and 27 and 34 and 33 and -10 and -1 and -13"}, {"measurement": "TR-FRET signal", "setting": "[2]; CFT-1297 6.32911e-6 M", "value": "11 and 4 and 8 and 21 and 25 and 18 and 13 and 9 and 23"}, {"measurement": "Experimental Rmax / Theoretical Rmax", "setting": "CRBN^midi", "value": 93, "unit": "%"}, {"measurement": "Kd", "setting": "CRBN^midi", "value": 2.1, "unit": "µM"}, {"measurement": "Experimental Rmax", "setting": "CRBN^midi; [4]", "value": 196}, {"measurement": "Theoretical Rmax", "setting": "CRBN^midi; [4]", "value": 211}, {"measurement": "Experimental Rmax / Theoretical Rmax", "setting": "CRBN^midi and BRD4^BD2 [3]", "value": 55, "unit": "%"}, {"measurement": "cooperativity α (binary KD / ternary KD)", "setting": "CRBN^midi and BRD4^BD2 [3]", "value": 3}, {"measurement": "Experimental Rmax", "setting": "CRBN^midi and BRD4^BD2 [3]; [5]", "value": 56}, {"measurement": "Theoretical Rmax", "setting": "CRBN^midi and BRD4^BD2 [3]; [5]", "value": 101}]}
